# Measured values: article PMC9942557, “Bolaamphiphile Analogues of 12-bis-THA Cl2 Are Potent Antimicrobial Therapeutics with Distinct Mechanisms of Action against Bacterial, Mycobacterial, and Fungal Pathogens” (mSphere, 2022)
# Where two headings read alike, the source gives them in different places.
# Legend:
# [1] = system: Pseudomonas aeruginosa RP73; test: Intrahemocoelic G. mellonella infection model; assay type: in vivo, Galleria mellonella; conditions: 96 h
# A. baumannii AYE = test: Fixed-concentration (0.25× MIC bolalipid) synergy broth microdilution; assay type: cell-based; conditions: Acinetobacter baumannii
# P. aeruginosa NCTC 13437 [2] = test: Checkerboard synergy assay; assay type: cell-based, Pseudomonas aeruginosa
# E. coli NCTC 12923 = test: Fixed-concentration (0.25× MIC bolalipid) synergy broth microdilution; assay type: cell-based; conditions: Escherichia coli, NCTC12923, E. coli NCTC 12923, read-out: MIC of aminoglycoside
# P. aeruginosa PAO1 [3] = test: Checkerboard synergy assay; assay type: cell-based, Pseudomonas aeruginosa
# P. aeruginosa PAO1 [4] = test: Fixed-concentration (0.25× MIC bolalipid) synergy broth microdilution; assay type: cell-based, Pseudomonas aeruginosa; conditions: Pseudomonas aeruginosa, PAO1, P. aeruginosa PAO1, read-out: MIC of aminoglycoside
# K. pneumoniae NCTC 13368 = test: as above; assay type: cell-based, Klebsiella pneumoniae; conditions: Klebsiella pneumoniae, NCTC13368, K. pneumoniae NCTC 13368, read-out: MIC of aminoglycoside
# A. baumannii ATCC 17978 = test: as above; assay type: cell-based; conditions: Acinetobacter baumannii, ATCC17978, A. baumannii ATCC 17978, read-out: MIC of aminoglycoside
# P. aeruginosa NCTC 13437 [5] = test: as above; assay type: cell-based, Pseudomonas aeruginosa; conditions: Pseudomonas aeruginosa, NCTC13437, P. aeruginosa NCTC 13437, read-out: MIC of aminoglycoside
# K. pneumoniae M6 = test: as above; assay type: cell-based; conditions: Klebsiella pneumoniae
# P. aeruginosa RP73 = test: Checkerboard synergy assay; assay type: cell-based, Pseudomonas aeruginosa
# [6] = system: Pseudomonas aeruginosa RP73; test: In vitro pharmacodynamic (PD) assay; conditions: P. aeruginosa RP73; combination 2:1 (wt/wt)
# Experimental: In vitro PD assays were performed with Pseudomonas aeruginosa RP73 cultured in Roswell Park Memorial Institute 1640 medium (RPMI) supplemented with 5% Mueller-Hinton broth (MHB) ([35]). Bacteria were cultured overnight in 10 mL of RPMI–5% MHB at 37°C and diluted just prior to plate inoculation to an OD600 of 0.002. Stock solutions of colistin or tobramycin were prepared in sterile MilliQ water at a concentration of 200× MIC. Octa-bola was prepared in methanol at 2,000× MIC and diluted in water to 200× MIC. A dilution series was made in the top row of a polypropylene 96-well plate from 200× MIC to 0.2× MIC in a volume of 100 μL, to which 100 μL of the bacterial suspension was added to have a total of 1 × 10^6 log-phase CFU in 200 μL. The first time zero sample was taken <30 s after addition of bacteria to the plate, with further samples taken at appropriate intervals thereafter. […] Fifteen microliters was removed from each well, diluted 1:1,000 in phosphate-buffered saline, and plated onto RPMI–5% MH agar plates. The plates were incubated at 37°C overnight for CFU counting.
# CFU data were log10 transformed, and the bacterial net growth rate was determined from the increase or decrease in CFU during the time of exposure to the antibiotics as the coefficient of a linear regression of log10 CFU as a function of time. The intercept of the regression was fixed by forcing the regression lines through the first CFU measurement (0 min) at a given antimicrobial concentration. The pharmacodynamic function according to Regoes et al. ([36]) describes the relationship between bacterial net growth rate (ψ) and the concentration of an antimicrobial (a): ψmax − ([ψmax − ψmin][a/zMIC])^κ/([a/zMIC]^κ − [ψmin/ψmax]). Fitting this function to the net bacterial growth rates in OriginPro 2020 (OriginLab Corporation, Northampton, MA) generates the parameters ψmin and ψmax (minimum and maximum growth rates, respectively), zMIC (the pharmacodynamic MIC), and κ (a measure of the cooperativity). […]
# C. tropicalis 8760 = test: Broth microdilution MIC; assay type: cell-based; conditions: C. tropicalis 8760
# M. tuberculosis Bleupan [7] = test: microbe, parasite or virus in culture; assay type: cell-based, Mycobacterium tuberculosis
# [8] = system: Acinetobacter baumannii AYE; test: Broth microdilution MIC; assay type: cell-based; conditions: Acinetobacter baumannii AYE
# [9] = system: VS Enterococcus faecalis NCTC 775; test: Broth microdilution MIC; assay type: cell-based
# [10] = system: Pseudomonas aeruginosa PAO1; test: Broth microdilution MIC; assay type: cell-based
# C. parapsilosis 3209 = test: Broth microdilution MIC; assay type: cell-based
# C. albicans 3179 = test: Broth microdilution MIC; assay type: cell-based, Candida albicans; conditions: C. albicans 3179
# [11] = system: Pseudomonas aeruginosa NCTC 13437; test: Broth microdilution MIC; assay type: cell-based
# [12] = system: Escherichia coli NCTC 12923; test: Broth microdilution MIC; assay type: cell-based
# C. krusei 3876 = test: Broth microdilution MIC; assay type: cell-based
# C. albicans 3281 = test: Broth microdilution MIC; assay type: cell-based, Candida albicans; conditions: C. albicans 3281
# [13] = system: VR Enterococcus faecium NCTC 12204; test: Broth microdilution MIC; assay type: cell-based; conditions: VR Enterococcus faecium NCTC 12204
# [14] = system: EMR Staphylococcus aureus 15 NCTC 13616; test: Broth microdilution MIC; assay type: cell-based; conditions: EMR Staphylococcus aureus 15 NCTC 13616
# [15] = system: Acinetobacter baumannii ATCC 17978; test: Broth microdilution MIC; assay type: cell-based
# [16] = system: EMR Staphylococcus aureus 16 NCTC 13277; test: Broth microdilution MIC; assay type: cell-based; conditions: EMR Staphylococcus aureus 16 NCTC 13277
# Dynamic light scattering = assay type: physicochemical
# Experimental: Stock solutions of bolalipids were prepared by dispersing the powder in ultrapure water, then stirring vigorously by vortexing, and sonicating in a 40°C bath sonicator for 20 min. The concentration of each stock solution corresponds to the highest solubility achieved in water for each bolalipid, using the method described above. DLS experiments were performed on a Malvern Zetasizer Nano (Malvern Instruments, Worcestershire, UK) in back-scattering mode at 20°C. There were three independent measurements of each sample and 12 runs for each measurement, with 10 s taken for each run. The attenuator index and measurement position were automatically adjusted. Fifty microliters of each sample was transferred into polystyrene semi-microcuvettes for determination of UV and visible wavelengths (Sarstedt).
# [17] = system: Klebsiella pneumoniae NCTC 13368; test: Broth microdilution MIC; assay type: cell-based
# M. smegmatis mc^2 155 = test: Broth microdilution MIC (Middlebrook 7H9); assay type: cell-based, Mycobacterium smegmatis
# [18] = system: VR Enterococcus faecalis NCTC 12201; test: Broth microdilution MIC; assay type: cell-based; conditions: VR Enterococcus faecalis NCTC 12201
# C. parapsilosis = test: Broth microdilution MIC; assay type: cell-based
# C. auris temp probe = test: Broth microdilution MIC; assay type: cell-based, Candida auris; conditions: C. auris temp probe
# Klebsiella pneumoniae M6 = test: Broth microdilution MIC; assay type: cell-based
# HeLa = test: In vitro toxicity for cell line; assay type: cell-based, human; conditions: average ± standard error from 3 independent repeats
# From the text: (§1) TABLE 2 Toxicity of bolaamphiphiles for two cell lines^a | column: Toxicity (EC50 [μg/ml]) of: / 12-bis-THA Cl2; Toxicity (EC50 [μg/ml]) of: / Dequalinium; Toxicity (EC50 [μg/ml]) of: / Quino-bola; Toxicity (EC50 [μg/ml]) of: / Penta-bola; Toxicity (EC50 [μg/ml]) of: / Hepta-bola; Toxicity (EC50 [μg/ml]) of: / Octa-bola; Toxicity (EC50 [μg/ml]) of: / Octa-C10; Toxicity (EC50 [μg/ml]) of: / Octa-C8; Toxicity (EC50 [μg/ml]) of: / Octa-C6
# HEK293 = test: In vitro toxicity for cell line; assay type: cell-based, human; conditions: HEK293; average ± standard error from 3 independent repeats
# From the text: as §1
# C. glabrata 8018 = test: Broth microdilution MIC; assay type: cell-based; conditions: C. glabrata 8018
# M. tuberculosis Bleupan [19] = assay type: in vivo, Galleria mellonella
# [20] = No bola, read-out: MIC of aminoglycoside
# [21] = in the presence of 0.25× MIC Octa-Bola, read-out: MIC of aminoglycoside
# [22] = in the presence of 0.25× MIC Octa-C6, read-out: MIC of aminoglycoside
# [23] = in the presence of 0.25× MIC Octa-C10, read-out: MIC of aminoglycoside
# [24] = in the presence of 0.25× MIC Octa-Bola
# [25] = in the presence of 0.25× MIC Octa-C6
# [26] = in the presence of 0.25× MIC Octa-C10
structure (smiles),measurement,setting,value
NC[C@H]1O[C@H](O[C@H]2[C@H](O)[C@@H](O[C@H]3O[C@H](CO)[C@@H](O)[C@H](N)[C@H]3O)[C@H](N)C[C@@H]2N)[C@H](N)C[C@@H]1O [Tobramycin],larvae rescued,[1]; 5 mg/kg,37.5%
same,larvae rescued,"[1]; 50 mg/kg, 1 × 10^2 CFU per larva",97.5%
same,MIC,A. baumannii AYE; [20],64 µg/mL
same,MIC,A. baumannii AYE; [21],8 µg/mL
same,MIC,A. baumannii AYE; [22],16 µg/mL
same,MIC,A. baumannii AYE; [23],4 µg/mL
same,MIC alone Antibiotic,P. aeruginosa NCTC 13437 [2],64 µg/mL
same,MIC,E. coli NCTC 12923; No bola,2 µg/mL
same,MIC,E. coli NCTC 12923; [24],1 µg/mL
same,MIC,E. coli NCTC 12923; [25],2 µg/mL
same,MIC,E. coli NCTC 12923; [26],1 µg/mL
same,MIC alone Antibiotic,P. aeruginosa PAO1 [3],0.5 µg/mL
same,MIC,P. aeruginosa PAO1 [4]; No bola,1 µg/mL
same,MIC,P. aeruginosa PAO1 [4]; [24],0.5 µg/mL
same,MIC,P. aeruginosa PAO1 [4]; [25],0.5 µg/mL
same,MIC,P. aeruginosa PAO1 [4]; [26],0.25 µg/mL
same,MIC,K. pneumoniae NCTC 13368; No bola,8 µg/mL
same,MIC,K. pneumoniae NCTC 13368; [24],4 µg/mL
same,MIC,K. pneumoniae NCTC 13368; [25],16 µg/mL
same,MIC,K. pneumoniae NCTC 13368; [26],8 µg/mL
same,MIC,A. baumannii ATCC 17978; No bola,2 µg/mL
same,MIC,A. baumannii ATCC 17978; [24],0.125 µg/mL
same,MIC,A. baumannii ATCC 17978; [25],0.5 µg/mL
same,MIC,A. baumannii ATCC 17978; [26],0.5 µg/mL
same,MIC,P. aeruginosa NCTC 13437 [5]; No bola,64 µg/mL
same,MIC,P. aeruginosa NCTC 13437 [5]; [24],8 µg/mL
same,MIC,P. aeruginosa NCTC 13437 [5]; [25],8 µg/mL
same,MIC,P. aeruginosa NCTC 13437 [5]; [26],4 µg/mL
same,MIC,K. pneumoniae M6; [20],1 µg/mL
same,MIC,K. pneumoniae M6; [21],0.5 µg/mL
same,MIC,K. pneumoniae M6; [22],1 µg/mL
same,MIC,K. pneumoniae M6; [23],0.25 µg/mL
same,MIC alone Antibiotic,P. aeruginosa RP73,2 µg/mL
same,"bactericidal activity (minimum growth rate, ψmin)",[6],weakly bactericidal
Nc1c2c([n+](CCCCCC[n+]3c4c(c(N)c5ccccc53)CCCCCC4)c3ccccc13)CCCCCC2 [Octa-C6],MIC,C. tropicalis 8760,8 µg/mL
same,MIC,M. tuberculosis Bleupan [7],0.46 µg/mL
same,MIC,[8],>32 µg/mL
same,MIC,[9],32 µg/mL
same,MIC,[10],>32 µg/mL
same,MIC,C. parapsilosis 3209,>8 µg/mL
same,MIC,C. albicans 3179,8 µg/mL
same,MIC,[11],>32 µg/mL
same,MIC,[12],>32 µg/mL
same,MIC,C. krusei 3876,>8 µg/mL
same,MIC,C. albicans 3281,8 µg/mL
same,MIC,[13],16 µg/mL
same,MIC,[14],16 µg/mL
same,MIC,[15],>32 µg/mL
same,MIC,[16],16 µg/mL
same,nanoparticle formation (DLS),Dynamic light scattering; any conditions,Under no conditions did Octa-C6 give evidence of nanoparticle formation
same,derived count rate,Dynamic light scattering; concentrations up to 1.65 mM,≤ 26.3 kcps
same,MIC,[17],>32 µg/mL
same,MIC,M. smegmatis mc^2 155,1.66 µg/mL
same,MIC,[18],16 µg/mL
same,MIC,C. parapsilosis,>8 µg/mL
same,MIC,C. auris temp probe,>8 µg/mL
same,MIC alone Bolalipid,P. aeruginosa RP73,64 µg/mL
same,MIC,Klebsiella pneumoniae M6,>32 µg/mL
same,Toxicity (EC50),HeLa,64.3 ± 3.6 µg/mL
same,Toxicity (EC50),HEK293,40.0 ± 15.6 µg/mL
same,MIC,C. glabrata 8018,>8 µg/mL
same,protection,M. tuberculosis Bleupan [19]; all doses tested,did not provide protection
same,survival,"M. tuberculosis Bleupan [19]; three lower doses (0.01, 0.1, and 1 mg/kg)",survival was significantly worse
